In patent US20110183949A1, “Use of Fulvestrant in the Treatment of Resistant Breast Cancer” (priority 2000, published 2011):

Tests used:
[1] = system: estrogen receptor (ER); conditions: relative to oestradiol equivalent of 1.0; cited from earlier work
[2] = system: MCF-7 human breast cancer cells; conditions: MCF-7 cells, cited from earlier work; for reduction in MCF-7 cell numbers (inhibition): same conditions for fulvestrant and tamoxifen (tamoxifen: maximum)
[3] = system: breast cancer; conditions: women whose breast cancer has progressed following tamoxifen therapy; cited from earlier work
[4] = system: breast cancer; assay: treatment of breast cancer patients who failed previous aromatase inhibitor treatment; assay type: in vivo, human; conditions: patients previously treated with an aromatase inhibitor (optionally also a SERM) and failed
[5] = system: MCF-7 tumours; conditions: cited from earlier work

Row | Compound | relative binding affinity for the estrogen receptor (ER) [1] | reduction in MCF-7 cell numbers (inhibition) [2] [%] | efficacy in phase II trial [3] | IC50 ([2]; read-out: IC50, inhibitory effect on the growth of MCF-7 human breast cancer cells) [nM] | sensitivity of breast cancer to further treatment [4] | duration of growth suppression of established MCF-7 tumours versus tamoxifen ([5]; established MCF-7 tumours, compared with tamoxifen treatment) | delay of tumourgenesis versus tamoxifen-treated mice ([5]; mice) | sensitivity of tamoxifen-resistant MCF-7 tumours to treatment ([5]; tumours grown out after long-term treatment with tamoxifen)
1 | oestradiol | 1.0 | – | – | – | – | – | – | –
2 | CC/C(=C(\c1ccccc1)c1ccc(OCCN(C)C)cc1)c1ccccc1 [tamoxifen] | – | ≤ 50 | – | – | – | – | – | –
3 | C[C@]12CC[C@@H]3c4ccc(O)cc4C[C@@H](CCCCCCCCC[S+]([O-])CCCC(F)(F)C(F)(F)F)[C@H]3[C@@H]1CC[C@@H]2O (stereo partly drawn) [fulvestrant, 7-alpha-[9-(4,4,5,5,5pentafluoropentylsulphiny)nonyl]-estra-1,3,5(10)-triene-3, 17βdiol] | 0.89 | 80 | demonstrated efficacy | 0.29 | sensitive to further treatment by fulvestrant | twice as long | delayed to a greater extent | remain sensitive to fulvestrant treatment
